Literature values as cited in patent publication US20030124524A1, “Screening assays for identifying modulators of the inflammatory or immune response” (priority 2000, published 2003).
Where two headings read alike, the source gives them in different places.

## rhIL-1ra: recombinant human IL-1 receptor antagonist protein, useful for treatment of rheumatoid arthritis in a genotype-dependent manner
Patients carrying at least one IL-1A (+4845) allele 2 (and alleles in linkage disequilibrium)
  response to treatment of rheumatoid arthritis: substantial and significant response
Patients homozygous for IL-1A (+4845) allele 1
  response to treatment of rheumatoid arthritis: response no better than placebo
